The values that follow come from US8759400B2, “Histone deacetylase inhibitors for enhancing activity of antifungal agents” (MethylGene Inc., priority 2005, dated 2014).

Values after ≈ are worked out from the molar mass of the structure shown. Read-outs that look alike come from different tables or passages of the source.

Data set [1] concerns HDAC. The experiment in a line: HDAC inhibitory activity in fungal protoplasts (Fluor-de-Lys). In kind it is cell-based, Candida glabrata. As to conditions: C. glabrata protoplasts. How it is done: (§1) Protoplasts of C. albicans and C. glabrata are prepared by the […] method of Franzusoff et al.
Data set [2] deals with HDAC. Described as above. The settings on record: C. albicans protoplasts. The data set is classed as cell-based, Candida albicans. How it is done:
as §1

For data set [3], the system named is C. glabrata (ATCC 90030). The experiment in a line: MIC80 and checkerboard synergy with antifungal agents. The data set is classed as cell-based, Candida glabrata. The settings on record: Nakaseomyces glabratus, ATCC90030; compound alone; C. glabrata (ATCC 90030); read-out: MIC80.
For data set [4], the system named is HMEC. The experiment in a line: Mammalian cytotoxicity, MTT reduction. In general terms: Tetrazolium assays rely on reduction of a dye to a coloured formazan, in cell work by metabolically active cells.
The test system of another data set is ERG11 expression. The experiment in a line: ERG11 expression with fluconazole (FIG. 3). The settings on record: compound 6 and fluconazole, C. albicans. The data set is classed as cell-based.
For another data set, the system named is C. albicans (ATCC 90028). The experiment in a line: MIC80 and checkerboard synergy with antifungal agents. The data set is classed as cell-based, Candida albicans. The settings on record: Candida albicans, ATCC90028; compound alone; C. albicans (ATCC 90028); read-out: MIC80.
Data set [5] has as its system HMEC. As to conditions: human.
Data set [6] deals with HDAC. The data set is described as follows: HDAC inhibitory activity in fungal protoplasts (Boc-Lys(Ac)-AMC). In kind it is cell-based, Aspergillus fumigatus. The settings on record: A. fumigatus protoplasts.
The next data set deals with A. fumigatus ATCC 1022. The experiment in a line: MIC80 and checkerboard synergy, broth microdilution (NCCLS M38-A). In kind it is cell-based, Aspergillus fumigatus. The settings on record: A. fumigatus ATCC 1022; for conc. for 4-fold synergy: with ketoconazole, 48 hours. On the technique in general: In broth dilution the organism is exposed to a series of concentrations in liquid medium.

The subject of data set [7] is C. glabrata (ATCC 90030). In kind it is cell-based. As to conditions: agar plates containing 4×MIC of the relevant azole alone.
Another data set has as its system A. flavus. The data set is described as follows: Clinical isolates, CLSI M38-A broth microdilution and checkerboard. In kind it is cell-based. As to conditions: itraconazole alone, 48 hour endpoint, listed as ITR.
The test system of a further data set is C. glabrata. The experiment in a line: Post-antifungal effect (PAFE). The data set is classed as cell-based. The settings on record: itraconazole alone at 0.25 MIC. How it is done: The post-antifungal effect (PAFE) is the time needed to achieve one log10 of cell growth after drug removal. One-two colonies are resuspended in 5 ml YPD. […] Cells are incubated at 30° C. overnight. In the morning, the optical density at 600 nm is read. Cells at A600 the closest but not surpassing 0.3 (early log-phase cells) are picked for further treatments as follows: […] Counts of CFU/ml are performed at time zero, before and after diluting the cells and at predetermined time points in order to determine the PAFE and the cidal potential of each drug combination (FIGS. 5-10).

In data set [8] the test system is C. glabrata parent strain (ATCC 90030) and C. glabrata mutants. The experiment in a line: microbe, parasite or virus in culture. The settings on record: for MIC80: azole alone. The data set is classed as cell-based.

Turning to `O=C(CCc1ccc(CCCc2ccccc2)cc1)NO` [Cpd 6], the “HDAC inhibition IC50” value in the data set on HDAC [1] and in the data set on HDAC [2] was greater than 20 µg/mL each time. For the same molecule, in the data set with HDAC [1] (concentration not given), the “HDAC inhibition, per cent in parentheses beside IC50 >20” value is given as 22%. The MIC in the data set on C. glabrata (ATCC 90030) [3] and with C. albicans (ATCC 90028) was 25 µg/mL throughout. For the same molecule, the “MTT HMEC” value in the data set with HMEC [4] is 40 µM. For the same molecule, the ERG11 expression result in the data set with ERG11 expression is reported as “decreases”.

As for `O=C(/C=C/c1ccc(CN(CCO)CCc2c[nH]c3ccccc23)cc1)NO` [LAQ-824, reference compound], the “HDAC inhibition IC50” value in the data set with HDAC [1], in the data set on HDAC [2] and in the data set with HDAC [6] was 0.01 µg/mL each time. The MIC in the data set on C. glabrata (ATCC 90030) [3] is greater than 64 µg/mL; with C. albicans (ATCC 90028), greater than 128 µg/mL; in the data set with A. fumigatus ATCC 1022 (Aspergillus fumigatus, ATCC1022, 48 h, compound alone, read-out: MIC80), greater than 128 µg/mL. Besides, the “MTT HMEC” value in the data set on HMEC [5] was 0.75 µM. In the data set with A. fumigatus ATCC 1022, the “conc. for 4-fold synergy” value is greater than 128 µg/mL.

For `Nc1ccccc1NC(=O)c1ccc(CNC(=O)OCc2cccnc2)cc1` [MS275, reference compound], the “HDAC inhibition IC50” value in the data set on HDAC [1] is greater than 20 µg/mL; with HDAC [2] it was greater than 20 µg/mL; with HDAC [6] it was greater than 40 µg/mL. Besides, the MIC80 is greater than 64 µg/mL in the data set with C. glabrata (ATCC 90030) [3]; greater than 128 µg/mL with C. albicans (ATCC 90028); greater than 128 µg/mL in the data set on A. fumigatus ATCC 1022 (Aspergillus fumigatus, ATCC1022, compound alone, read-out: MIC80). The “MTT HMEC” value with HMEC [5] amounted to 22 µM. In the data set on A. fumigatus ATCC 1022, the “conc. for 4-fold synergy” value was greater than 128 µg/mL.

Consider `CCC(C)n1ncn(-c2ccc(N3CCN(c4ccc(OCC5COC(Cn6cncn6)(c6ccc(Cl)cc6Cl)O5)cc4)CC3)cc2)c1=O` (stereo not shown) [itraconazole, reference compound], for which the “frequency of resistant C. glabrata mutants” value in the data set on C. glabrata (ATCC 90030) [7] is recorded as 3×10^−7. Further, the “ITR MIC” value in the data set on A. flavus (A. flavus isolate 20351.092) amounted to 0.5 µg/mL; with A. flavus (A. flavus isolate 20414.083) it was 1.0 µg/mL. Besides, in the data set on C. glabrata, the PAFE entry is reported as “No PAFE”. Also, the MIC80 was greater than 64 µg/mL in [8] (C. glabrata mutants resistant to that azole) and 1 µg/mL (≈ 1.42 µM) in data set [8] (C. glabrata parent strain). For the same molecule, the “MIC80 itraconazole relative to wild type” value in data set [8] (fluconazole-resistant mutants (all)) turned out to be 64 × wild type. Also, the “itraconazole MIC80 in presence of Compound 4” value in data set [8] (itraconazole-resistant mutants) was no more than 1 µg/mL.
